Assay results taken from patent US11419921B2, “Methods of treating neurological disorders” (EnClear Therapies, Inc., priority 2018, dated 2022).

Test system: (GR)10
Test: Cleavage of (GR)10 by enzymes in solution (PBS with CaCl2 and MgCl2), LC/MS of GR repeats
Type: biochemical
Conditions: for (GR)1 concentration / (GR)2 concentration / (GR)4 concentration / (GR)6 concentration / (GR)8 concentration / (GR)10 concentration: (GR)10 50 μM; for (GR)1 / (GR)2 / (GR)3 / (GR)4 / (GR)5 / (GR)6 / (GR)8 / (GR)10: PBS, normalized
Experimental: • (GR)10 dipeptide (also (GR)8, (GR)6, (GR)4, (GR)2) were synthetized by solid-phase synthesis by CanPeptide; All peptides are uncapped and supplied lyophilized with TFA as counter ions. Purity was always above 95%. • Buffer: PBS buffer containing CaCl2 and MgCl2. • Stock solution of enzyme (e.g., 10 mg/mL) (prepared per manufacturer instructions) in PBS. Activators added as necessary. • Working solution of protein of the desired concentration (e.g., 100 μg/mL) prepared immediately before use by diluting the stock solution (e.g., 5 μL of 10 mg/mL stock solution) in PBS buffer (e.g., in 495 μL of PBS). Exemplary Procedure Using 50 μM Concentrations of (GR)10
25 μL of a 100 μM solution of (GR)10 was added to each well of a 96-well plate. 25 μL of a solution of enzyme (two times the desired final enzyme concentration) was added, and the plates were incubated at room temperature. At the specified time points (5 minutes, 10 minutes, 30 minutes, 60 minutes, and 180 minutes) 2.5 μL of a 10% TFA solution were added to stop the reaction. For the time 0 min well, the TFA was added to the well before addition of the enzyme. After last time point, all samples were further diluted with 150 μL of dilution solution. The quenched reaction mixtures were analyzed by LC/MS to determine the concentration of GR repeats of different lengths.
The chromatography and mass spectrometry conditions utilized are shown in Table 2 and Table 3, respectively.

(GR)1 concentration (enzyme 2.5 μg/mL, 0 min): BLQ
(GR)2 concentration (enzyme 2.5 μg/mL, 0 min): BLQ
(GR)4 concentration (enzyme 2.5 μg/mL, 0 min): BLQ
(GR)6 concentration (enzyme 2.5 μg/mL, 0 min): BLQ
(GR)8 concentration (enzyme 2.5 μg/mL, 0 min): BLQ
(GR)10 concentration (enzyme 2.5 μg/mL, 0 min): 53.8 µM
(GR)1 concentration (enzyme 2.5 μg/mL, 5 min): 0.2 µM
(GR)2 concentration (enzyme 2.5 μg/mL, 5 min): 0.2 µM
(GR)4 concentration (enzyme 2.5 μg/mL, 5 min): BLQ
(GR)6 concentration (enzyme 2.5 μg/mL, 5 min): BLQ
(GR)8 concentration (enzyme 2.5 μg/mL, 5 min): 0.3 µM
(GR)10 concentration (enzyme 2.5 μg/mL, 5 min): 52.6 µM
(GR)1 concentration (enzyme 2.5 μg/mL, 10 min): 0.3 µM
(GR)2 concentration (enzyme 2.5 μg/mL, 10 min): 0.2 µM
(GR)4 concentration (enzyme 2.5 μg/mL, 10 min): 0.2 µM
(GR)6 concentration (enzyme 2.5 μg/mL, 10 min): BLQ
(GR)8 concentration (enzyme 2.5 μg/mL, 10 min): 0.6 µM
(GR)10 concentration (enzyme 2.5 μg/mL, 10 min): 52.5 µM
(GR)1 concentration (enzyme 2.5 μg/mL, 30 min): 1.3 µM
(GR)2 concentration (enzyme 2.5 μg/mL, 30 min): 0.8 µM
(GR)4 concentration (enzyme 2.5 μg/mL, 30 min): 0.7 µM
(GR)6 concentration (enzyme 2.5 μg/mL, 30 min): 0.7 µM
(GR)8 concentration (enzyme 2.5 μg/mL, 30 min): 0.6 µM
(GR)10 concentration (enzyme 2.5 μg/mL, 30 min): 43.6 µM
(GR)1 concentration (enzyme 2.5 μg/mL, 60 min): 2.3 µM
(GR)2 concentration (enzyme 2.5 μg/mL, 60 min): 1.4 µM
(GR)4 concentration (enzyme 2.5 μg/mL, 60 min): 1.4 µM
(GR)6 concentration (enzyme 2.5 μg/mL, 60 min): 1.0 µM
(GR)8 concentration (enzyme 2.5 μg/mL, 60 min): 1.6 µM
(GR)10 concentration (enzyme 2.5 μg/mL, 60 min): 35.3 µM
(GR)1 concentration (enzyme 2.5 μg/mL, 120 min): 4.3 µM
(GR)2 concentration (enzyme 2.5 μg/mL, 120 min): 2.1 µM
(GR)4 concentration (enzyme 2.5 μg/mL, 120 min): 2.3 µM
(GR)6 concentration (enzyme 2.5 μg/mL, 120 min): 1.5 µM
(GR)8 concentration (enzyme 2.5 μg/mL, 120 min): 2.5 µM
(GR)10 concentration (enzyme 2.5 μg/mL, 120 min): 24.9 µM
(GR)1 concentration (enzyme 10 μg/mL, 0 min): BLQ
(GR)2 concentration (enzyme 10 μg/mL, 0 min): BLQ
(GR)4 concentration (enzyme 10 μg/mL, 0 min): BLQ
(GR)6 concentration (enzyme 10 μg/mL, 0 min): BLQ
(GR)8 concentration (enzyme 10 μg/mL, 0 min): BLQ
(GR)10 concentration (enzyme 10 μg/mL, 0 min): 41.6 µM
(GR)1 concentration (enzyme 10 μg/mL, 5 min): 0.8 µM
(GR)2 concentration (enzyme 10 μg/mL, 5 min): 0.5 µM
(GR)4 concentration (enzyme 10 μg/mL, 5 min): 0.5 µM
(GR)6 concentration (enzyme 10 μg/mL, 5 min): 0.4 µM
(GR)8 concentration (enzyme 10 μg/mL, 5 min): 0.9 µM
(GR)10 concentration (enzyme 10 μg/mL, 5 min): 50.5 µM
(GR)1 concentration (enzyme 10 μg/mL, 10 min): 1.4 µM
(GR)2 concentration (enzyme 10 μg/mL, 10 min): 0.8 µM
(GR)4 concentration (enzyme 10 μg/mL, 10 min): 0.7 µM
(GR)6 concentration (enzyme 10 μg/mL, 10 min): 0.8 µM
(GR)8 concentration (enzyme 10 μg/mL, 10 min): 0.9 µM
(GR)10 concentration (enzyme 10 μg/mL, 10 min): 37.8 µM
(GR)1 concentration (enzyme 10 μg/mL, 30 min): 5.1 µM
(GR)2 concentration (enzyme 10 μg/mL, 30 min): 2.5 µM
(GR)4 concentration (enzyme 10 μg/mL, 30 min): 2.2 µM
(GR)6 concentration (enzyme 10 μg/mL, 30 min): 1.6 µM
(GR)8 concentration (enzyme 10 μg/mL, 30 min): 2.8 µM
(GR)10 concentration (enzyme 10 μg/mL, 30 min): 21.1 µM
(GR)1 concentration (enzyme 10 μg/mL, 60 min): 8.3 µM
(GR)2 concentration (enzyme 10 μg/mL, 60 min): 3.7 µM
(GR)4 concentration (enzyme 10 μg/mL, 60 min): 2.8 µM
(GR)6 concentration (enzyme 10 μg/mL, 60 min): 2.2 µM
(GR)8 concentration (enzyme 10 μg/mL, 60 min): 3.3 µM
(GR)10 concentration (enzyme 10 μg/mL, 60 min): 12.2 µM
(GR)1 concentration (enzyme 10 μg/mL, 120 min): 15.1 µM
(GR)2 concentration (enzyme 10 μg/mL, 120 min): 6.3 µM
(GR)4 concentration (enzyme 10 μg/mL, 120 min): 3.2 µM
(GR)6 concentration (enzyme 10 μg/mL, 120 min): 2.0 µM
(GR)8 concentration (enzyme 10 μg/mL, 120 min): 1.3 µM
(GR)10 concentration (enzyme 10 μg/mL, 120 min): 2.4 µM
(GR)1 (in solution - 5 min reaction): 1.4 µM
(GR)2 (in solution - 5 min reaction): 2.9 µM
(GR)3 (in solution - 5 min reaction): 2.1 µM
(GR)4 (in solution - 5 min reaction): 3.1 µM
(GR)5 (in solution - 5 min reaction): 2.3 µM
(GR)6 (in solution - 5 min reaction): 4.4 µM
(GR)8 (in solution - 5 min reaction): 6.8 µM
(GR)10 (in solution - 5 min reaction): 213.3 µM
(GR)1 (in solution - 60 min reaction): 5.4 µM
(GR)2 (in solution - 60 min reaction): 12.8 µM
(GR)3 (in solution - 60 min reaction): 8.5 µM
(GR)4 (in solution - 60 min reaction): 8.8 µM
(GR)5 (in solution - 60 min reaction): 6.0 µM
(GR)6 (in solution - 60 min reaction): 9 µM
(GR)8 (in solution - 60 min reaction): 12.8 µM
(GR)10 (in solution - 60 min reaction): 21.6 µM
Substance: Elastase: protease that cleaves at the carboxyl side of small hydrophobic amino acids; in Table 22 also immobilized on agarose resin
